Reference: publication PMC5705213, “Immunoproteasome functions explained by divergence in cleavage specificity and regulation” (eLife, 2017)
Each block holds one compound with its values, some of them ahead of it. *1 amine or outer side, *2 acyl side, *3 side chain or, on linkers, in order; H or OH if unused. Where a SMILES comes first, the peptide text is derived from it. The star is where a group is joined. ACC = NC(=O)Cc1cc(=O)oc2cc(N*)ccc12; AMC = Cc1cc(=O)oc2cc(N*)ccc12; Suc = O=C(CCC(=O)[*:2])[*:1]

Legend:
[1] = molecular target: T1, human immunoproteasome core particle (i20S) (Homo sapiens, UniProt P20618+P28062); test: Purified proteasome activity assay with fluorogenic substrates, SDS-activated i20S; format: biochemical
T1 construct: purchased Boston Biochem E-370
Procedure: Non-prime-side substrate specificity profiling was performed with a complete, diverse library of 160,000 fluorogenic substrates containing the general structure acetyl-P4-P3-P2-P1-(7-amino-4-carbamoylmethylcourmarin, ACC) ([Harris et al., 2000]). For each sub-library, 10 nM human i20S or c20S underwent SDS pre-activation for 1 hr at room temperature in assay buffer (20 mM Tris, pH 8.0, 0.5 mM EDTA) containing 0.03% SDS. […] Activity assays were carried out over 1 hr following two-fold sample dilution in the same 0.03% SDS-containing buffer that also contained a 250 μM final concentration of PS-SCL substrate pool. Activity was recorded in black 96-well round bottom plates (Costar, COrning, NY) using a BioTek Synergy H4 Hybrid Multi-Mode Microplate Reader set to λex = 380 nm and λem = 460 nm (gain = 63). Initial velocity in relative fluorescence units per second (RFU/s) was calculated using a linear fit of the progress curves with Gen5 software v.2.03.
Activity assays with individual fluorogenic substrates were carried out as described above for the PS-SCL assays using final concentrations of 5 nM SDS-activated i20S or c20S and 10 μM substrate except where noted below. The commercial substrates Suc-LLVY-AMC, Ac-WLA-AMC (Boston Biochem, S-330), and Ac-ANW-AMC (Boston Biochem, S-320) were used as supplied. To convert cleaved substrate RFU to free AMC or ACC dye concentration, calibration curves were prepared through total enzymatic hydrolysis of ACC- or AMC-containing peptides that had been quantified through amino acid analysis (Alphalyse, Inc.). Substrate selectivity of PA28α- and SDS-activated 20S proteasomes was compared following 1 hr pre-incubation at room temperature either in the presence of 0.03% SDS or with 12 molar equivalents of PA28α activator in the absence of SDS. For substrate selectivity assays with mixed, purified proteasomes, i20S and c20S underwent individual SDS pre-activation prior to assaying with 5 nM final concentration of pooled 20S. Proteasome ratio assays were performed with 10 μM EWFW-ACC, 30 μM iso-VQA-ACC, and 30 μM Suc-LLVY-AMC. All activity measurements were recorded on the BioTek plate reader described above using λex = 380 nm and λem = 460 nm (gain = 63) for ACC substrates and Suc-LLVY-AMC; 345 nm and λem = 445 nm (gain = 63) for Ac-WLA-AMC and Ac-ANW-AMC; and λex = 328 nm and λem = 393 nm (gain = 75) for the GEWHWPS IQ substrate. Michaelis-Menten calculations were performed using a non-linear fit in Prism v.6.0.

LMP7 / β5 = test: MOLT-4 lysate proteasome activity assay, IC50, LLVY-AMC substrate; format: biochemical, human; settings: 1 hr pre-incubation, 30 μM Suc-LLVY-AMC, read-out: IC50, detection method LLVY-AMC, subunit LMP7 / β5
Procedure: Three lysates containing varied proteasome ratios (whole blood, PBMCs, and the MOLT-4 cell line) were assayed in the absence or presence of proteasome inhibitors as described above. Lysates were generated by washing cells in PBS and lysing the resulting cell pellet in a two-fold greater volume of cold lysis buffer (20 mM Tris, pH 8.0, 5 mM EDTA). Total protein concentration was determined using the BCA Protein Assay Kit (Thermo Scientific Pierce) with bovine serum albumin (BSA) as the protein standard. […] Activity assays were carried out over 1 hr following two-fold sample dilution in the same assay buffer containing final concentrations of 10 μM NH2-EWFW-ACC, 30 μM iso-VQA-ACC, or 30 μM Suc-LLVY-AMC. Activity measurements were recorded on the BioTek plate reader described above in 384-well plates using either λex = 380 nm and λem = 460 nm (gain = 85) for the ACC substrates or λex = 345 nm and λem = 445 nm (gain = 85) for the AMC substrate.

primary human PBMCs = test: Cellular proteasome inhibition and recovery assay, PBMCs; format: cell-based; settings: primary human PBMCs from healthy donors, one-hour pulse, 24 hr
Procedure: (§1) SUP-B15 and MOLT-4 cells were seeded at 2 × 10^6/mL in RPMI media containing 10% FBS 24 hr prior to inhibition assays; PBMC vials were thawed and seeded at 4.4 × 10^6/mL in RPMI media with 10% FBS 3 hr prior to inhibition assays. Cells were diluted 2-fold with serum-free RPMI media containing 2X inhibitor or vehicle control (0.5% DMSO and 5% FBS final). Inhibitor treatments were carried out for 1 hr at 37°C, and to remove unbound inhibitor, cells were immediately washed three times (SUP-B15 and PBMCs) or six times (MOLT-4) with D-PBS for 1 hr time points or RPMI media containing 5% FBS for subsequent time points. Cells were incubated at 37°C for the duration of the time course and washed two times in D-PBS to remove serum upon harvest. The cell pellets were flash-frozen in liquid N2 prior to storage at −80°C.
(§2) Cell pellets were thawed and incubated for 30 min on ice in non-denaturing lysis buffer (20 mM Tris, pH 8.0, 5 mM EDTA) or RIPA buffer that contained cOmplete^TM EDTA-free inhibitor cocktail (Roche, Pleasanton, CA). Total protein concentration in supernatants was determined using a Bradford Protein Assay Kit (Thermo Scientific Pierce) or BCA Protein Assay Kit (Cell Signaling Technology), respectively, with BSA as the protein standard. Lysate activity assays were performed following 2-fold dilution of 0.1–0.4 mg/mL lysate into assay buffer as described above. […]

Nrf1 = Nrf1 western blot after ONX 0914 pulse treatment; format: cell-based, human; settings: RIPA lysates from the cell lines and PBMCs
Procedure: as §1, §2

SUP-B15 cell line [2] = test: Cellular proteasome inhibition and recovery assay, SUP-B15; format: cell-based, human; settings: SUP-B15, one-hour pulse, 24 hr time course
Procedure: as §1, §2

SUP-B15 cell line [3] = test: Ubiquitin western blot after one-hour inhibitor pulse treatment; format: cell-based, human; settings: ONX 0914 200 nM or PR-825 100 or 125 nM
Procedure: as §1, §2

[4] = test system: rheumatoid arthritis mouse model; design: method as in Muchamuel et al., 2009; settings: at a significantly lower dose than bortezomib or CFZ; ref Muchamuel et al., 2009; cited from earlier work
PSMB8 (LMP7) mRNA = test: qRT-PCR of PSMB8 (LMP7) mRNA after ONX 0914 pulse treatment; format: cell-based, human; settings: SUP-B15, MOLT-4 and PBMCs after one-hour pulse, normalized to GAPDH
Procedure: as §1
Total RNA was extracted from cells using the RNeasy Plus Mini kit (Qiagen, Germantown, MD). The quantity and quality of RNA was confirmed by absorption measurements at 260 and 280 nm. […] Efficiencies for each primer/probe set were calculated from a serial dilution of Human Reference Total RNA (Agilent) and were >95%. Relative quantification of gene expression was calculated with the comparative cycle threshold method, normalizing for GAPDH expression levels.

β5 = molecular target: T2, β5 (Homo sapiens, UniProt P20618+P28074); test: MOLT-4 lysate proteasome activity assay, IC50, iso-VQA-ACC substrate; format: biochemical; settings: commercial β5 substrate
T2 construct: For IC50 measurements with the MOLT-4 lysate; endogenous in cells; host or cells: MOLT-4 lysate
Procedure: Three lysates containing varied proteasome ratios (whole blood, PBMCs, and the MOLT-4 cell line) were assayed in the absence or presence of proteasome inhibitors as described above. Lysates were generated by washing cells in PBS and lysing the resulting cell pellet in a two-fold greater volume of cold lysis buffer (20 mM Tris, pH 8.0, 5 mM EDTA). Total protein concentration was determined using the BCA Protein Assay Kit (Thermo Scientific Pierce) with bovine serum albumin (BSA) as the protein standard.

[5] = iP over cP, Michaelis-Menten analysis

Compound: NC(=O)Cc1cc(=O)oc2cc(NC(=O)[C@H](Cc3c[nH]c4ccccc34)NC(=O)[C@H](Cc3ccccc3)NC(=O)[C@H](Cc3c[nH]c4ccccc34)NC(=O)[C@@H](N)CCC(=O)O)ccc12 [EWFW-ACC] (H-EWFW-{ACC})
improvement in Km for the iP ([1]; compared to the parent substrate EWHW-ACC): 7 fold
Ratio Vmax (i20S/c20S) [1]: 16
Ratio kcat/Km (i20S/c20S) [1]: 4.0
selectivity at Vmax [1, 5]: 16 fold

Compound: NC(=O)Cc1cc(=O)oc2cc(NC(=O)[C@H](Cc3c[nH]c4ccccc34)NC(=O)[C@H](Cc3c[nH]cn3)NC(=O)[C@H](Cc3c[nH]c4ccccc34)NC(=O)[C@@H](N)CCC(=O)O)ccc12 [EWHW-ACC] (H-EWHW-{ACC})
Ratio Vmax (i20S/c20S) [1]: 6.0
Ratio kcat/Km (i20S/c20S) [1]: 8.4
iP selectivity ([1]; iP over cP, 10 μM substrate concentration): 4.5 fold
selectivity at Vmax [1, 5]: 6 fold

Compound: Ac-Trp-Leu-Ala-{AMC}
detection of β5 activity in MOLT-4 lysate (β5): unable to specifically detect proteasome activity

Second part, led by results:

Ratio Vmax (i20S/c20S) [1]: 0.28
Ratio kcat/Km (i20S/c20S) [1]: 0.33
Compound: Cc1cc(C(=O)N[C@H](C(=O)N[C@@H](CCC(N)=O)C(=O)N[C@@H](C)C(=O)Nc2ccc3c(CC(N)=O)cc(=O)oc3c2)C(C)C)no1 [iso-VQA-ACC]

IC50 (LMP7 / β5): 53 nM
Compound: CC(C)C[C@H](NC(=O)[C@H](CCc1ccccc1)NC(=O)CN1CCOCC1)C(=O)N[C@@H](Cc1ccccc1)C(=O)N[C@@H](CC(C)C)C(=O)[C@@]1(C)CO1 [CFZ, carfilzomib]

selectivity at Vmax ([1]; iP and cP, direction not given): 2.0 fold
Compound: Cc1cc(=O)oc2cc(NC(=O)[C@H](Cc3ccc(O)cc3)NC(=O)[C@@H](NC(=O)[C@H](CC(C)C)NC(=O)[C@H](CC(C)C)NC(=O)CCC(=O)O)C(C)C)ccc12 [LLVY-AMC] (Suc-LLVY-{AMC})
ability to distinguish iP and cP in defined mixtures of each proteasome ([1]; mixed ratios of purified proteasomes, 30 μM substrate): unable to distinguish between the two proteasomes

IC50 (LMP7 / β5): 256 nM
Compound: COc1ccc(C[C@H](NC(=O)[C@H](C)NC(=O)CN2CCOCC2)C(=O)N[C@@H](Cc2ccccc2)C(=O)[C@]2(C)CO2)cc1 [ONX 0914]
recovery of LMP7 activity after irreversible inhibition (primary human PBMCs): confirmed in primary human PBMCs
processed Nrf1 (p110) level (western blot) (Nrf1): accumulation of processed Nrf1 (p110)
recovery of LMP7 activity after irreversible inhibition (SUP-B15 cell line [2]): rapid recovery
global ubiquitinated protein level (immunoblot) (SUP-B15 cell line [3]): global accumulation of ubiquitinated protein
disease progression [4]: attenuate disease progression
PSMB8 mRNA level (PSMB8 (LMP7) mRNA): increased PSMB8 mRNA levels

Ratio Vmax (i20S/c20S) [1]: 12
Ratio kcat/Km (i20S/c20S) [1]: 6.0
Compound: CC(=O)N[C@@H](C)C(=O)N[C@@H](CC(N)=O)C(=O)N[C@@H](Cc1c[nH]c2ccccc12)C(=O)Nc1ccc2c(C)cc(=O)oc2c1 [Ac-ANW-AMC] (Ac-Ala-Asn-Trp-{AMC})
